Here are results for one compound from publication PMC11286589, “Population pharmacokinetics and exposure–response analyses of SAF-189s in Chinese patients with ALK+/ROS1+ non-small cell lung cancer” (Frontiers in Pharmacology, 2024).

For the experiment, the system named is ALK+/ROS1+ advanced NSCLC. Nature of the experiment: Phase I/II study (SAF001, NCT04237805): tumor response, IRC, RECIST 1.1. The experiment is classed as in vivo, human. An excerpt: A first-in-human phase I/II study (NCT04237805) enrolled patients with advanced ALK+/ROS1+ NSCLC with or without asymptomatic CNS metastases. […] The population PK analysis included data from one phase I study of SAF-189s conducted with healthy subjects (study STL31147; n = 24) and one phase I/II study conducted with Chinese patients having ALK+/ROS1+ advanced NSCLC (study SAF001; n = 299). STL31147 was a single-center, randomized, open-label, two-period (fed and fasting), and two-sequence crossover study on healthy Chinese adults. The volunteers received SAF-189s at a dose of 160 mg orally once in each period, with a washout period of 14 days. Blood samples (3 mL) were collected after each SAF-189s administration at 0 (predose), 1, 2, 3, 4, 6, 8, 10, 12, 24, 48, 72, 120, and 168 h post dosing. SAF001 was a multicenter, open-label, and single-arm phase I/II study to evaluate the safety, tolerability, pharmacokinetics, and antitumor activity of SAF-189s in patients with advanced ALK+ NSCLC (phase I) and ALK+/ROS1+ NSCLC (phase II). In the dose escalation portion, the study treatment included a single-agent 3-day PK run-in period and a continuous treatment period. The dosing regimens were 20, 40, 80, 120, 160, and 210 mg QD for 21 days in 21-day cycles during the continuous treatment period. In phase II, the patients received 80, 120, 160, and 210 mg of SAF-189s (phase IIa) or 160 mg (phase IIb) QD over 21-day cycles. All studies were conducted in accordance with the Good Clinical Practice guidelines and Declaration of Helsinki. The protocols were approved by the independent ethics committee of each investigation site, and all subjects provided informed consent. The tumor responses were assessed by the IRC based on the Response Evaluation Criteria in Solid Tumors (RECIST) 1.1 conditions. The exposure–efficacy analyses of SAF-189s were conducted based on data from patients in the SAF001 study to explore the relationships between systemic exposure and efficacy endpoints, including the ORR, PFS, and duration of response (DOR). The exposure–safety analyses of SAF-189s were conducted based on data from patients in the SAF001 study to explore the relationships between the systemic exposure and safety endpoints, including the adverse events (AEs) of interest. In these studies, the SAF-189s plasma concentrations were analyzed using validated liquid chromatography tandem mass spectrometry within the assay range of 0.5–150 ng mL^–1.

Regarding `Cc1cc(Nc2ncc(Cl)c(Nc3ccccc3S(=O)(=O)C(C)C)n2)c2c(c1C1CCN(C)CC1)C[C@@H](C)O2` [SAF-189s], the ORR worked out at 89.83% (160-mg dose group, ROS1+ treatment-naive patients (n = 59)); 78.69% (ALK+ and ROS1+ patients (n = 244)); 91.18% (ROS1+ treatment-naive subgroup (n = 68)); 40.62% (ROS1+ treatment-resistant patients (n = 32)).
